Test results: patent US11241417B2, “Compositions and methods for the treatment and prevention of neurological disorders” (Yumanity Therapeutics, Inc., priority 2018, dated 2022)
“Also recorded” adds a separate entry of the source.

Tests used:
Type in all cases: cell-based
[1] = tested on: TDP-43-expressing yeast; assay: Yeast TDP-43 model viability (resazurin-reduction endpoint); settings: 2-fold serial dilution applied for 24 hours
Procedure: (§1) (FIG. 1A) Structure of the Erg11 inhibitor and anti-fungal, fluconazole. […] A 2-fold serial dilution of fluconazole was applied to TDP-43-expressing yeast for 24 hours prior to analysis. (FIG. 1C) Wild-type yeast cultures were treated with fluconazole for eight hours prior to HPLC analysis for lanosterol and ergosterol. Data are expressed as the area under the curve (AUC) normalized to cell mass based on optical density of cultures at 600 nm.
The toxic gain of function features of TDP-43 can be faithfully recapitulated in the simple model organism, budding yeast, where the protein also localizes to stress granules. […] The yeast model thus provides a robust cell-based screening platform for small molecules capable of ameliorating toxicity. To validate compounds from such phenotypic screens, it is imperative to test compounds in a mammalian neuronal context. In an effort to develop TDP-43-related mammalian models of neuron loss that occurs in ALS and FTD, primary cultures of rat cortical neurons were transfected with human wild type or Q331K mutant TDP-43. These cells were compared to cells which received an empty expression vector control. […] In the experiments described in this example, this model system is used to interrogate new therapeutic approaches to ameliorate TDP-43 toxicity.
Fluconazole is an antifungal known to inhibit Erg11, the yeast lanosterol 14-alpha demethylase (FIG. 1B). […]

[2] = tested on: Erg11; assay: HPLC analysis for lanosterol and ergosterol in fluconazole-treated wild-type yeast cultures; settings: wild-type yeast cultures treated for eight hours, normalized to optical density at 600 nm
Procedure: as §1
Fluconazole is an antifungal known to inhibit Erg11, the yeast lanosterol 14-alpha demethylase (FIG. 1B). […] CYP51A1 has also been known as lanosterol 14-alpha demethylase, which describes its function in removing the 14-alpha-methyl group from lanosterol to generate 4,4-dimethylcholesta-8(9),14,24-trien-3β-ol, which is a critical step in the cholesterol biosynthetic pathway.

[3] = tested on: primary rat cortical neurons transfected with wild-type TDP-43; assay: Survival of primary rat cortical neurons transfected with wild-type TDP-43; settings: rat primary cortical neurons co-transfected with RFP and wild-type human TDP-43; titration of compound; cox regression
Procedure: (§2) Rat primary cortical neurons were co-transfected with a red fluorescent protein (RFP) as a morphological marker and either control (empty vector) or wild-type TDP-43 expression plasmids and treated with vehicle (DMSO) or a titration of compound (3). (FIG. 3A) Risk of neuron death plots. The lifetime of each neuron was determined by either loss of RFP signal or morphological indicators of death such as loss of neurites and cell blebbing and used to generate cumulative hazard plots of risk of death over time (hrs) post-transfection. (FIG. 3B) Forest plots. Hazard ratios for each treatment group (relative to TDP-43 DMSO group) were determined by cox regression analysis and used to generate forest plots. […] P, p-value.
Rat primary cortical neurons were co-transfected with a red fluorescent protein (RFP) as a morphological marker and either control (empty vector) or wild type TDP-43 expression plasmids and treated with vehicle (DMSO) or a titration of compound (4). […] The lifetime of each neuron was determined by either loss of RFP signal or morphological indicators of death such as loss of neurites and cell blebbing and used to generate cumulative hazard plots of risk of death over time (hrs) post-transfection. […] Hazard ratios for each treatment group (relative to TDP-43 DMSO group) were determined by cox regression analysis and used to generate forest plots. […]

[4] = tested on: primary rat cortical neurons transfected with Q331K Mutant TDP-43; assay: Survival of primary rat cortical neurons transfected with Q331K mutant TDP-43; settings: rat primary cortical neurons co-transfected with RFP and Q331K mutant TDP-43; titration of compound; cox regression
Procedure: as §2, with “Q331K mutant” for “wild-type”, “4A)” for “3A)”, “4B)” for “3B)”
The toxic gain of function features of TDP-43 can be faithfully recapitulated in the simple model organism, budding yeast, where the protein also localizes to stress granules. […] The yeast model thus provides a robust cell-based screening platform for small molecules capable of ameliorating toxicity. To validate compounds from such phenotypic screens, it is imperative to test compounds in a mammalian neuronal context. In an effort to develop TDP-43-related mammalian models of neuron loss that occurs in ALS and FTD, primary cultures of rat cortical neurons were transfected with human wild type or Q331K mutant TDP-43. […]

Row | SMILES | viability of TDP-43-expressing yeast [1] | ergosterol (AUC normalized to cell mass) [2] | lanosterol (AUC normalized to cell mass) [2] | neuron survival (risk of neuron death, hazard ratio relative to TDP-43 DMSO group) [3] | neuron survival (risk of neuron death, hazard ratio relative to TDP-43 DMSO group) [4]
1 | OC(Cn1cncn1)(Cn1cncn1)c1ccc(F)cc1F [Fluconazole] | restored viability; also recorded: rescues viability | reduces ergosterol | increase in the Erg11 substrate, lanosterol |  | 
2 | CCCN(CCc1ccc(Cl)c(Cl)c1)CC(O)c1cccnc1 (stereo not drawn) [compound (3)] |  |  |  | reduction in survival was partially alleviated; also recorded: promotes survival | promotes survival
3 | O=C(N[C@@H](Cc1ccc(F)cc1)C(=O)N1CCC(O)CC1)c1cc2cc(Cl)ccc2[nH]1 [compound (4)] |  |  |  | promotes survival | 
